Laboratory results reported in patent publication USRE45340E1, “Lentil plants having increased resistance to imidazolinone herbicides” (University of Saskatchewan, priority 2001, dated 2015).

Key:
[1] = system: transgenic rice; conditions: cited from earlier work
[2] = system: AHAS; assay: Inhibition of AHAS activity in wild type CDC Richlea lentil by imidazolinone herbicides; type: biochemical, lentil (Lens culinaris); conditions: wild type CDC Richlea lentil variety; increasing herbicide concentrations (FIG. 4, FIG. 5)
Text: (§1) FIG. 4 is a graph showing the inhibition of AHAS activity in RH44 and CDC Richlea lentil plants by increasing concentrations of imazapic.
(§2) FIG. 5 is a graph showing the inhibition of AHAS activity in RH44 and CDC Richlea lentil plants by increasing concentrations of imazethapyr.
(§3) The AHAS activity in the wild type CDC Richlea lentil variety was inhibited by imazapic (CADRE®)) (FIG. 4) and imazethapyr (PURSUIT®) (FIG. 5) representative of all imidazolinone herbicides.

[3] = system: AHAS; assay: Inhibition of AHAS activity in RH44 lentil by imidazolinone herbicides; type: biochemical, lentil (Lens culinaris); conditions: RH44 lentil variety, compared with wild type CDC Richlea (FIG. 4, FIG. 5)
Text: as §1, §2, §3
It is therefore likely that the gene primarily responsible for AHAS activity in the RH44 lentil has undergone a point mutation similar to that observed in corn, wheat and canola. This has made the isozyme coded for by this sequence resistant to imidazolinone inhibition. The wild type isozyme has no such mutation and therefore is susceptible to imidazolinone herbicide. Such a scenario would explain why AHAS activity drops 30 to 40% with the addition of maximum concentrations of imidazolinone herbicides.

[4] = system: AHAS; assay: Negative feedback inhibition assay of AHAS activity; type: biochemical, RH44 lentil and CDC Richlea lentil varieties; conditions: leucine and valine addition (FIG. 3)
Text: FIG. 3 is a graph showing the inhibition of AHAS activity in RH44 and CDC Richlea lentil plants by a negative feedback inhibition assay.
The responses of the RH44 lentil variety and the CDC Richlea variety were identical in a negative feedback inhibition assay. As described earlier, AHAS is an enzyme active in the biosynthesis of leucine and valine. Under conditions of excess leucine and/or valine, the activity of AHAS is diminished. The ability of leucine and valine addition to inhibit AHAS activity was the same in the RH44 lentil and CDC Richlea lentil varieties, indicating very similar levels of expression and a lack of any discernible difference in AHAS function (FIG. 3).

COc1nc(C)nc(NC(=O)NS(=O)(=O)c2ccccc2Cl)n1 [chlorsulfuron]
differences in in vitro resistance ([1]; Arabidopsis ALS promoter replaced with the CaMV35S promoter): 40 fold
increase in in vitro resistance ([1]; transgenic rice containing a 35S/ALS transgene): 200 fold

Cc1cnc(C2=NC(=O)C(C)(C(C)C)N2)c(C(=O)O)c1 (centres unmarked) [imazapic]
inhibition of AHAS activity [2]: inhibited
inhibition of AHAS activity [3]: not to the same extent as for the wild type lentil CDC Richlea

CCc1cnc(C2=NC(C)(C(C)C)C(=O)N2)c(C(=O)O)c1 (centres unmarked) [imazethapyr]
inhibition of AHAS activity [2]: inhibited
inhibition of AHAS activity [3]: not to the same extent as for the wild type lentil CDC Richlea

CC(C)C[C@H](N)C(=O)O [leucine]
ability to inhibit AHAS activity, RH44 versus CDC Richlea [4]: the same

CC(C)[C@H](N)C(=O)O [valine]
ability to inhibit AHAS activity, RH44 versus CDC Richlea [4]: the same
